Assays:
[1] = biological target: T1, Full length Akt1 (Homo sapiens, UniProt P31749); test: In vitro Akt kinase enzymatic assay (HTRF), Akt1; type: biochemical; details: 0.4 nM Akt1, substrate solution with 5 mM ATP, 25° C. 1 hr
T1 construct: Full length Akt1 (cat #P2999); purchased PerkinElmer P2999
Outline: (§1)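 Full-length enzyme (0.4 nM Akt1 or 0.6 nM Akt2/Akt3 in the enzyme solution) was combined with a substrate solution of 0.1 μM ULight-Crosstide plus 5 mM ATP in pH 7.8 HEPES/MgCl2/DTT/Tween20 buffer and reacted 1 hr at 25° C. The EDTA stop contained Eu anti-phospho-Crosstide; IC50 was fitted from 11-point HTRF inhibition curves.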

[2] = biological target: T2, Full length Akt2 (Homo sapiens, UniProt P31751); test: In vitro Akt kinase enzymatic assay (HTRF), Akt2; type: biochemical; details: 0.6 nM Akt2, substrate solution with 5 mM ATP, 25° C. 1 hr
T2 construct: Full length Akt1 (cat #P2999), Akt2 (cat #PV3184); purchased PerkinElmer PV3184
T2 sequence (P31751 whole entry): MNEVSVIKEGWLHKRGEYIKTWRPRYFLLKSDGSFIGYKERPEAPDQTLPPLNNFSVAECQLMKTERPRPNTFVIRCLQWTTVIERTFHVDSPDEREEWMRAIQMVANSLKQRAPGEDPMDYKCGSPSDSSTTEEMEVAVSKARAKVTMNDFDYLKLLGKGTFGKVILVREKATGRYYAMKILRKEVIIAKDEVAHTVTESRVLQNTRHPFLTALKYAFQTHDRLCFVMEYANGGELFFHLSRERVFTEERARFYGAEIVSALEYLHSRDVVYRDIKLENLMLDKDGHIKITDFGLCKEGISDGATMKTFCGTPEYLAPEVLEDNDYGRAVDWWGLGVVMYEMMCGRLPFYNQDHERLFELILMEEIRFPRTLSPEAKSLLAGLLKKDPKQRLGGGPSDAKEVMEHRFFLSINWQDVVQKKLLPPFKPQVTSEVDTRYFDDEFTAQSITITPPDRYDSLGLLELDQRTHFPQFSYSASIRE
Outline: as §1

[3] = biological target: T3, Full length Akt3 (Homo sapiens, UniProt Q9Y243); test: In vitro Akt kinase enzymatic assay (HTRF), Akt3; type: biochemical; details: 0.6 nM Akt3, substrate solution with 5 mM ATP, 25° C. 1 hr
T3 construct: Full length Akt1 (cat #P2999), Akt2 (cat #PV3184), Akt3 (cat #PV3185); purchased PerkinElmer PV3185
T3 sequence (Q9Y243 whole entry): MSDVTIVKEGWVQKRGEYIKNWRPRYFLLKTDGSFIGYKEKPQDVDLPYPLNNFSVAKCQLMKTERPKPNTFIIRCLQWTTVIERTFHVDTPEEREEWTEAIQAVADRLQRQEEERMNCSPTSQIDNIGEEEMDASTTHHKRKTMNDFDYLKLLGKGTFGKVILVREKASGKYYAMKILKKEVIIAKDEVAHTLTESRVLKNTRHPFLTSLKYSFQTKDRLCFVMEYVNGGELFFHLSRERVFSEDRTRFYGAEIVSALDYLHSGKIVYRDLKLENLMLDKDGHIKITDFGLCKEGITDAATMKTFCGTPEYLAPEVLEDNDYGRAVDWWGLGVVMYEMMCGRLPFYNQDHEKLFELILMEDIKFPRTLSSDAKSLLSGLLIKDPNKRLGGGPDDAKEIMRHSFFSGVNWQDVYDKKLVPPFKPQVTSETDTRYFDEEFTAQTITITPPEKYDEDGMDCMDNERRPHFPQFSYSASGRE
Outline: as §1

[4] = biological target: T4, Full length PKA (Homo sapiens, UniProt P17612); test: PKA in vitro enzymatic assay (HTRF); type: biochemical; details: 0.035 nM enzyme solution, substrate solution with 5 mM ATP, 25° C. 1 hr
T4 construct: Full length PKA (cat #P2912); purchased Invitrogen P2912
Outline: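 Reaction buffer was 50 mM HEPES pH 7.8, 10 mM MgCl2, 5 mM DTT and 0.005% Tween20. Enzyme solution was 0.035 nM, and substrate solution was 0.1 μM fluorescein-CREBtide with 5 mM ATP. After 1 h at 25°C, EDTA plus Tb anti-pS133 antibody was added, TR-FRET was read, and IC50 was fitted from 11-point, 3-fold % inhibition curves.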

[5] = tested on: LNCaP cells (human prostate tumor cell line); test: Akt LNCaP proliferation assay (MTS); type: cell-based; details: 2% fetal bovine serum, 48 hours, class symbols
Experimental: LNCaP cells (human prostate tumor cell line) were plated in 96 well plates (COSTAR, Corning, N.Y.) in 50 μL at 10,000 cells/well in RPMI (Media Tech, Manassas, Va.), 2% fetal bovine serum (Hyclone/Thermo, Logan, Utah) and incubated overnight at 37° C., 5% CO2. […] of compound solution were added at final concentrations of 1000 nM to 0.5 nM in 3 fold dilutions for IC50 determination and plates further incubated for 48 hours. 100 μL of Cell Titer 96® Aqueous reagent, from an MTS colorimetric method for determining the number of viable cells in proliferation (Cell titer 96, Promega, Madison, Wis.) was added for 2 hours at 37° C., 5% CO2. Each plate was mixed well and read on a SpectroMax M5 automated plate reader (Molecular Devices, Sunnyvale Calif.). The ability of the compound to inhibit proliferation was reported as the inhibitor concentration required for 50% inhibition (IC50 values) of total cell proliferation. See Table 8 for data related to compounds of the examples.

T1 sequence (P31749 whole entry): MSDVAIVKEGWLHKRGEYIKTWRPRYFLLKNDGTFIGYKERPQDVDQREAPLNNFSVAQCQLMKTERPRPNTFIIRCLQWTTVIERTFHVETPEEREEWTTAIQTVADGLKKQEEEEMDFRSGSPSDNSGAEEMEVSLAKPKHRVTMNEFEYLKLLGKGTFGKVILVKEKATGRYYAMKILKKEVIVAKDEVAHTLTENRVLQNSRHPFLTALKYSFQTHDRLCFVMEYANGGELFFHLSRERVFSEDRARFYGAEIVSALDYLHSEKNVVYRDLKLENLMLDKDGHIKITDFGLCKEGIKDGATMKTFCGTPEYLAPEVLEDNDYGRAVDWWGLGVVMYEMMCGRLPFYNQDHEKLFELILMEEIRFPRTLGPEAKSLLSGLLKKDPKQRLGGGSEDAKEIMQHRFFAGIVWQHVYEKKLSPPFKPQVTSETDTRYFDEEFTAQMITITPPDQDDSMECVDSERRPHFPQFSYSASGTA

SMILES | IC50 [1] | IC50 [2] | IC50 [3] | IC50 [4] | IC50 [5]
Cn1ncc(COC2CCC2)c1-c1ccc2c(c1)CN([C@H](CN)Cc1cccc(F)c1)C2=O [Example 8, 2-[(1S)-2-amino-1-(3-fluorobenzyl)ethyl]-5-(4-cyclobutoxymethyl-1-methyl-1H-pyrazol-5-yl)isoindolin-1-one] | < 500 nM | < 500 nM | < 500 nM | 500 to 5000 nM | < 500 nM
Cn1ncc(COCC2CC2)c1-c1ccc2c(c1)CN([C@H](CN)Cc1cccc(F)c1)C2=O [Example 9, 2-[(1S)-2-amino-1-(3-fluorobenzyl)ethyl]-5-(4-cyclopropylmethoxymethyl-1-methyl-1H-pyrazol-5-yl)isoindolin-1-one] | < 500 nM | < 500 nM | < 500 nM | > 5000 nM | < 500 nM
CSCc1cnn(C)c1-c1ccc2c(c1)CN([C@H](CN)Cc1cccc(F)c1)C2=O [Example 10] | < 500 nM | 500 to 5000 nM | 500 to 5000 nM | > 5000 nM | 500 to 5000 nM
Cn1ncc(F)c1-c1ccc2c(c1)CN([C@H](CN)Cc1cccc(F)c1)C2=O [Example 11, 2-[(1S)-2-amino-1-(3-fluorobenzyl)ethyl]-5-(4-fluoro-1-methyl-1H-pyrazol-5-yl)isoindolin-1-one] | < 500 nM | < 500 nM | < 500 nM | 500 to 5000 nM | < 500 nM
Cn1ncc(Br)c1-c1ccc2c(c1)CN([C@H](CN)Cc1cccc(F)c1)C2=O [Example 12, 2-[(1S)-2-amino-1-(3-fluorobenzyl)ethyl]-5-(4-bromo-1-methyl-1H-pyrazol-5-yl)isoindolin-1-one] | < 500 nM | < 500 nM | < 500 nM | 500 to 5000 nM | < 500 nM
Cn1ncc(C#N)c1-c1ccc2c(c1)CN([C@H](CN)Cc1cccc(F)c1)C2=O [Example 13, 2-[(1S)-2-amino-1-(3-fluorobenzyl)ethyl]-5-(4-cyano-1-methyl-1H-pyrazol-5-yl)isoindolin-1-one] | < 500 nM | < 500 nM | < 500 nM | > 5000 nM | < 500 nM
Cn1nccc1-c1ccc2c(c1)CN([C@H](CN)Cc1cc(F)cc(F)c1)C2=O [Example 40, 2-[(1S)-2-amino-1-(3,5-difluorobenzyl)ethyl]-5-(1-methyl-1H-pyrazol-5-yl)isoindolin-1-one] | < 500 nM | < 500 nM | < 500 nM | 500 to 5000 nM | < 500 nM
Cn1ncc(Cl)c1-c1ccc2c(c1)CN([C@H](CN)Cc1cc(F)cc(F)c1)C2=O [Example 41, 2-[(1S)-2-amino-1-(3,5-difluorobenzyl)ethyl]-5-(4-chloro-1-methyl-1H-pyrazol-5-yl)isoindolin-1-one] | < 500 nM | < 500 nM | < 500 nM | 500 to 5000 nM | < 500 nM
Cc1cnn(C)c1-c1ccc2c(c1)CN([C@H](CN)Cc1cc(F)cc(F)c1)C2=O [Example 42, 2-[(1S)-2-amino-1-(3,5-difluorobenzyl)ethyl]-5-(4-methyl-1-methyl-1H-pyrazol-5-yl)isoindolin-1-one] | < 500 nM | < 500 nM | < 500 nM | 500 to 5000 nM | < 500 nM
COCc1cnn(C)c1-c1ccc2c(c1)CN([C@H](CN)Cc1cc(F)cc(F)c1)C2=O [Example 43, 2-[(1S)-2-amino-1-(3,5-difluorobenzyl)ethyl]-5-(4-methoxymethyl-1-methyl-1H-pyrazol-5-yl)isoindolin-1-one] | < 500 nM | < 500 nM | < 500 nM | > 5000 nM | < 500 nM
CCOCc1cnn(C)c1-c1ccc2c(c1)CN([C@H](CN)Cc1cc(F)cc(F)c1)C2=O [Example 44, 2-[(1S)-2-amino-1-(3,5-difluorobenzyl)ethyl]-5-(4-ethoxymethyl-1-methyl-1H-pyrazol-5-yl)isoindolin-1-one] | < 500 nM | < 500 nM | < 500 nM | 500 to 5000 nM | < 500 nM
CC(C)OCc1cnn(C)c1-c1ccc2c(c1)CN([C@H](CN)Cc1cc(F)cc(F)c1)C2=O [Example 45, 2-[(1S)-2-amino-1-(3,5-difluorobenzyl)ethyl]-5-[4-(2-propoxymethyl)-1-methyl-1H-pyrazol-5-yl]isoindolin-1-one] | < 500 nM | < 500 nM | < 500 nM | 500 to 5000 nM | < 500 nM
CCCOCc1cnn(C)c1-c1ccc2c(c1)CN([C@H](CN)Cc1cc(F)cc(F)c1)C2=O [Example 46, 2-[(1S)-2-amino-1-(3,5-difluorobenzyl)ethyl]-5-[4-(1-propoxymethyl)-1-methyl-1H-pyrazol-5-]isoindolin-1-one] | < 500 nM | < 500 nM | < 500 nM | 500 to 5000 nM | < 500 nM
Cn1ncc(COC2CCC2)c1-c1ccc2c(c1)CN([C@H](CN)Cc1cc(F)cc(F)c1)C2=O [Example 47, 2-[(1S)-2-amino-1-(3,5-difluorobenzyl)ethyl]-5-[4-(cyclobutoxymethyl)-1-methyl-1H-pyrazol-5-yl]isoindolin-1-one] | < 500 nM | < 500 nM | < 500 nM | 500 to 5000 nM | < 500 nM
Cn1ncc(COCC2CC2)c1-c1ccc2c(c1)CN([C@H](CN)Cc1cc(F)cc(F)c1)C2=O [Example 48, 2-[(1S)-2-amino-1-(3,5-difluorobenzyl)ethyl]-5-[4-(cyclopropylmethoxymethyl)-1-methyl-1H-pyrazol-5-yl]isoindolin-1-one] | < 500 nM | < 500 nM | < 500 nM | 500 to 5000 nM | < 500 nM
CSCc1cnn(C)c1-c1ccc2c(c1)CN([C@H](CN)Cc1cc(F)cc(F)c1)C2=O [Example 49, 2-[(1S)-2-amino-1-(3,5-difluorobenzyl)ethyl]-5-[4-(methylthio)methyl-1-methyl-1H-pyrazol-5-yl]isoindolin-1-one] | < 500 nM | 500 to 5000 nM | < 500 nM | > 5000 nM | 500 to 5000 nM
CCSCc1cnn(C)c1-c1ccc2c(c1)CN([C@H](CN)Cc1cc(F)cc(F)c1)C2=O [Example 50, 2-[(1S)-2-amino-1-(3,5-difluorobenzyl)ethyl]-5-[4-(ethylthio)methyl-1-methyl-1H-pyrazol-5-yl]isoindolin-1-one] | < 500 nM | < 500 nM | < 500 nM | > 5000 nM | < 500 nM
Cn1ncc(F)c1-c1ccc2c(c1)CN([C@H](CN)Cc1cc(F)cc(F)c1)C2=O [Example 51, 2-[(1S)-2-amino-1-(3,5-difluorobenzyl)ethyl]-5-(4-fluoro-1-methyl-1H-pyrazol-5-yl)isoindolin-1-one] | < 500 nM | < 500 nM | < 500 nM | < 500 nM | < 500 nM
Cn1ncc(Br)c1-c1ccc2c(c1)CN([C@H](CN)Cc1cc(F)cc(F)c1)C2=O [Example 52, 2-[(1S)-2-amino-1-(3,5-difluorobenzyl)ethyl]-5-(4-bromo-1-methyl-1H-pyrazol-5-yl)isoindolin-1-one] | < 500 nM | < 500 nM | < 500 nM | 500 to 5000 nM | < 500 nM
Cn1ncc(C#N)c1-c1ccc2c(c1)CN([C@H](CN)Cc1cc(F)cc(F)c1)C2=O [Example 53, 2-[(1S)-2-amino-1-(3,5-difluorobenzyl)ethyl]-5-(4-cyano-1-methyl-1H-pyrazol-5-yl)isoindolin-1-one] | < 500 nM | < 500 nM | < 500 nM | 500 to 5000 nM | < 500 nM
Cn1ncc(C#CC(C)(C)O)c1-c1ccc2c(c1)CN([C@H](CN)Cc1cc(F)cc(F)c1)C2=O [Example 54, 2-[(1S)-2-amino-1-(3,5-difluorobenzyl)ethyl]-5-[4-(3-hydroxy-3-methylbut-1-yn-1-yl)-1-methyl-1H-pyrazol-5-yl]isoindolin-1-one] | < 500 nM | < 500 nM | < 500 nM | > 5000 nM | < 500 nM

— US8895571B2, “Isoindolinone and pyrrolopyridinone derivatives as Akt inhibitors” (Incyte Corporation, priority 2011, dated 2014)
